Broadly, the IC50 is the midpoint of a concentration-inhibition curve. A word on the melting point: it is the temperature, or range, at which the solid turns liquid.

Data on six compounds can be found in patent US7741520B2, “Sulfonanilide analogs as selective aromatase modulators (SAMs)” (The Ohio State University Research Foundation, priority 2006, dated 2010).

In data set [1] the test system is aromatase activity in SK-BR-3 breast cancer cells. Briefly: Aromatase tritiated water-release assay in SK-BR-3 cell lines (first compound set). The following applies: SK-BR-3 cells; for IC50: 24 h treatment, five concentrations, each in triplicate, read-out: IC50 (μM), suppression of aromatase activity in SK-BR-3 breast cancer cells. Format: cell-based, human. Here is the method: Aromatase Tritiated Water-Release Assay in SK-BR-3 Cell Lines. SK-BR-3 cells were obtained from ATCC (Rockville, Md.). Cell cultures were maintained in phenol red-free custom media (MEM, Earle's salts, 1.5× amino acids, 2× nonessential amino acids, L-glutamine, 1.5× vitamins, Gibco BRL) supplemented with 10% fetal bovine serum (FBS), 2 mM L-glutamine, and 20 mg/L gentamycin. Measurement of aromatase enzyme activity was based on the tritium water release assay. 24 Cells in 100 mm Petri dish were treated with 0.1% DMSO (control), and inhibitors at the indicated concentrations. After 24 h, the media was changed and the cells were incubated with 100 nM [1â-3H]-androst-4-ene-3,17-dione ([…]) for 3 h. Subsequently, the reaction mixture was removed, and proteins were precipitated using 10% trichloroacetic acid at 42° C. for 20 min. After a brief centrifugation, the media was extracted three times with an equal amount of chloroform to extract unused substrate and further dextran-treated charcoal. After centrifugation, a 250-μL aliquot containing the product was counted in 5 mL of liquid scintillation mixture. Results were corrected for blanks and for the cell contents of culture flasks, and results were expressed as picomoles of 3H2O formed per hour incubation time per million live cells (pmol/h/10^6 cells). To determine the amount of cells in each flask, the cells were trypsinized and analyzed using the diphenylamine DNA assay adapted to a 96-well plate. (Natarajan N.; Shambaugh, G. E., 3rd; Elseth K. M.; Haines G. K.; Radosevich J. A. Adaptation of the diphenylamine (DPA) assay to a 96-well plate tissue culture format and comparison with the MTT assay. Biotechniques 1994, 17, 166-171; incorporated herein by reference). IC50 sigmoidal dose-response data were analyzed with Microsoft Excel and the Graphpad Prism (Version 3.0) program.

The subject of data set [2] is PGE2 production in MDA-MB-231 cells. Briefly: Enzyme immunoassay of PGE2 in MDA-MB-231 cells (COX-2 inhibitory activity). Format: cell-based, human. The following applies: 25 μM, 24 h (FIG. 4). The method, then: Enzyme Immunoassay of PGE2 in MDA-MB-231 Cells. MDA-MB-231 cells were obtained from ATCC (Rockville, Md.). Cell cultures were maintained in phenol red-free custom media (MEM, Earle's salts, 1.5× amino acids, 2× nonessential amino acids, L-glutamine, 1.5× vitamins, Gibco BRL) supplemented with 10% fetal bovine serum (FBS), 2 mM L-glutamine and 20 mg/L gentamycin. To study PGE2 synthesis in cell culture media, experiments were performed in […] Petri dishes. An aliquot of MDA-MB-231 cells (15×10^4 cells) were added to each dish and then incubated overnight to allow the cells to adhere to the dish. After that, cells were serum starved in defined media for 24 h. This step was followed by replacement of media with fresh media containing either vehicle (DMSO) or the indicated concentration of agents. After 24 h incubation at 37° C. the media were collected and the amount of PGE2 was determined by ELISA (Cayman Chemical) according to the protocol provided by the manufacturer. PGE2 concentration was normalized to total protein. Total proteins were extracted from adhered cells by 30 min treatment with 0.5 M NaOH at room temperature and shaking. Protein concentrations in these extracts were determined using a protein assay method (Bio-Rad Laboratories, Inc., Hercules, Calif.).

The test system of data set [3] is CYP19 mRNA expression in SK-BR-3 cells. Briefly: CYP19 mRNA expression by real-time RT-PCR in SK-BR-3 cells. Type of data set: cell-based, human. The following applies: 25 μM, 24 h (FIG. 5). Here is the method:
RNA Extraction. Total RNA was isolated using the TRIzol reagent according to the manufacturer's protocol. Total RNA pellets were dissolved in DNase- and RNase-free water and quantitated using a spectrophotometer. The quality of RNA samples was determined by electrophoresis through agarose gels and staining with ethidium bromide; the 18S and 28S rRNA bands were visualized under ultraviolet light.
(§1) cDNA Synthesis. Isolated total RNA (2 μg) was treated with DNase I Amplification grade, according to the recommended protocol to eliminate any DNA before reverse transcription. Treated total RNA was denatured at 65° C. for 5 min in the presence of 2.5 ng/μL random hexamers and 0.5 mM dNTP mix. The samples were snap-cooled on ice and centrifuged briefly. Complementary DNA (cDNA) was synthesized using Superscript II reverse transcriptase according to the recommended protocol. Briefly, the reactions were conducted in the presence of 1× First-Strand Buffer and 20 mM DTT at 42° C. for 50 min and consequently inactivated at 70° C. for 15 min. The cDNA generated was used as a template in realtime PCR reactions.
Real-Time PCR. Real-time PCR was performed using the Opticon 2 system from MJ Research (Waltham, Mass.). For the CYP19 total gene the PCR reaction mixture consisted of Taqman Universal PCR Master Mix (Applied Biosystems), 600 nM of CYP19 primer (sense: 5′-TGTCTCTTTGTTCTTCATGCTATTTCTC-3′ (SEQ ID NO: 1); antisense: 5′-TCACCAATAACAGTCTGGATTTCC-3′) (SEQ ID NO: 2); 250 nM Taqman probe (6FAM 5′-TGCAAAGCACCCTAATGTTGAAGAGGCAAT-3′TAMRA) (SEQ ID NO: 3) (Invitrogen), 18S rRNA (Applied Biosystems, Foster City, Calif.), and 2.0 μL of each RT sample in a final volume of 20 μL. The Taqman probe was designed to anneal to a specific sequence of the aromatase gene between the forward and the reverse primers. Cycling conditions were 50° C. for 2 mm and 95° C. for 10 mm, followed by 50 cycles at 95° C. for 15 s and 60° C. for 1 mm.
RNA extraction. Total RNA was isolated using the TRIzol reagent according to the manufacturer's protocol. Total RNA pellets were dissolved in DNase, RNase-free water and quantitated using a spectrophotometer. The quality of RNA samples was determined by electrophoresis through agarose gels and staining with ethidium bromide; the 18S and 28S rRNA bands were visualized under ultraviolet light.
as §1, with “synthesis.” for “Synthesis.”, “real-time” for “realtime”
Real-time PCR. Real-time PCR was performed using the Opticon™ 2 system from MJ Research (Waltham, Mass.). For the CYP19 total gene the PCR reaction mixture consisted of Taqman® Universal PCR Master Mix (Applied Biosystems), 600 nM of CYP19 primer (sense: 5′-TGTCTCTTTGTTCTTCATGCTATTTCTC-3′ (SEQ ID NO: 1); antisense: 5′-TCACCAATAACAGTCTGGATTTCC-3′) (SEQ ID NO: 2); 250 nM Taqman probe (6FAM 5′-TGCAAAGCACCCTAATGTTGAAGAGGCAAT-3′TAMRA) (SEQ ID NO: 3) (Invitrogen), and 2.0 μL of each cDNA sample in a final volume of 20 μL. […]
For orientation: Real-time PCR tracks product formation cycle by cycle.

For data set [4], the system named is aromatase activity in SK-BR-3 breast cancer cells. Briefly: Aromatase tritiated water-release assay in SK-BR-3 cell lines (first compound set). Format: cell-based, human. The following applies: SK-BR-3 cells.

Compound `CN(c1ccc([N+](=O)[O-])cc1OC1CCCCC1)S(C)(=O)=O` [Compound 17, N-Methyl-N-(2-cyclohexyloxy-4-nitrophenyl)methanesulfonamide] returned a melting point of 129 to 132 °C. Further, the IC50 in data set [1] is 0.47 µM. In addition, the “PGE2 production (COX-2 inhibitory activity)” value in data set [2] is “did not show any inhibitory activity”. In data set [3], the “CYP19 gene expression relative to control” value is “significantly decreased CYP19 gene expression”. In data set [4] (2 μM), the “time-course of suppression of aromatase activity” value (from here on “time-course”) was “prolonged reversible suppression of aromatase”.

`CCC(CC)Oc1cc([N+](=O)[O-])ccc1N(C)S(C)(=O)=O` [Compound 22, N-Methyl-N-(2-(1-ethyl-propyloxy-4-nitrophenyl))methanesulfonamide] had a melting point of 89 to 90 °C. Further, the IC50 in data set [1] amounted to 0.23 µM. Moreover, in data set [2], the “PGE2 production (COX-2 inhibitory activity)” value is given as “did not show any inhibitory activity”. In data set [3], the “CYP19 gene expression relative to control” value is recorded as “significantly decreased CYP19 gene expression”.

In turn, `CCC(CC)Oc1cc([N+](=O)[O-])ccc1NS(C)(=O)=O` [Compound 13, N-(2-(1-Ethyl-propyloxy-4-nitrophenyl))methanesulfonamide] registered a melting point of 100 to 102 °C. Also, the half-inhibitory concentration (IC50) in data set [1] is 0.3 µM. In addition, in data set [2], the “PGE2 production (COX-2 inhibitory activity)” value is listed as “significantly decrease in PGE2 production”. The “CYP19 gene expression relative to control” value in data set [3] is on record as “significantly decreased CYP19 gene expression”.

Take `C[C@@H]1C[C@@H]([C@H](O)CC2CC(=O)NC(=O)C2)C(=O)[C@@H](C)C1` [Cycloheximide]: the “time-course” value in data set [4] (10 μM) was “showed similar results”.

Take `N#Cc1ccc(C(c2ccc(C#N)cc2)n2cncn2)cc1` [letrozole, reference compound]: in data set [1] (letrozole 10 nM, after removal of drug), the “increase of aromatase activity after removing the drug” value turned out to be 150%. In data set [4] (10 nM), the “time-course” value is listed as “acute inhibition”.

As for `CS(=O)(=O)Nc1ccc([N+](=O)[O-])cc1OC1CCCCC1` [NS-398, N-(2-Cyclohexyloxy-4-nitrophenyl)methanesulfonamide, reference compound], the IC50 in data set [1] was determined as 0.68 µM. The “PGE2 production (COX-2 inhibitory activity)” value in data set [2] is on record as “significantly decrease in PGE2 production”. Moreover, the “CYP19 gene expression relative to control” value in data set [3] was “significantly decreased CYP19 gene expression”. In addition, in data set [4] (2 μM), the “time-course” value was “prolonged reversible suppression of aromatase”.
